Consider 11 molecules from ChEMBL document CHEMBL1150165, “Antineoplastic agents. 489. Isolation and structures of meliastatins 1-5 and related euphane triterpenes from the tree Melia dubia” (2002).

The structures appear in SMILES notation. Values after ≈ are worked out from the molar mass of the structure shown.

Type in all cases: functional
Test [1] has as its system P388. Kind of test: Growth inhibition of mouse P388 cells. The conditions noted are these: read-out: ED50 (the source's name).
Test [2] has as its system MCF7. The test can be described thus: Growth inhibition of human MCF7 cells.
The test system of test [3] is SF-268. Kind of test: Growth inhibition of human SF268 cells.
In test [4] the test system is KM-20L2. Kind of test: Growth inhibition of human KM20L2 cells.
For test [5], the system named is NCI-H460. Kind of test: Growth inhibition of human NCI-H460 cells.
For test [6], the system named is BXPC-3. Kind of test: Growth inhibition of human BxPC3 cells.
For test [7], the system named is DU-145. The test can be described thus: Growth inhibition of human DU145 cells.

In the case of `CC(C)=CCC[C@@H](C)[C@@H]1[C@@H](O)C[C@]2(C)C3=CC[C@H]4C(C)(C)[C@@H](O)CC[C@]4(C)[C@H]3CC[C@@]12C`, in test [1], the EC50 turned out to be 2.5 µg/mL (≈ 5.65 µM).

As to `C=C(C)[C@@H]1CCC([C@@H]2[C@@H](O)C[C@]3(C)C4=CC[C@H]5C(C)(C)C(=O)CC[C@]5(C)[C@H]4CC[C@@]23C)C(=O)O1` (stereo not given in full) [DUBIONE B], the EC50 in test [1] was 20.5 µg/mL (≈ 43.7 µM).

Take `O=c1[nH]cc(F)c(=O)[nH]1` [FLUOROURACIL]: the EC50 in test [1] was 0.075 µg/mL (≈ 0.577 µM).

On to `CC(C)=CCC[C@H]1C(=O)O[C@H]2C[C@]3(C)C4=CC[C@H]5C(C)(C)C(=O)CC[C@]5(C)[C@H]4CC[C@@]3(C)[C@@H]21` [KULACTONE], for which the EC50 in test [1] is 6.2 µg/mL (≈ 13.7 µM).

The term GI50 denotes the concentration giving 50% growth inhibition. Read a high GI50 as less potent growth inhibition. As to `CC(C)=CCC[C@@H](C)[C@@H]1[C@@H](O)C[C@]2(C)C3=CC[C@H]4C(C)(C)C(=O)CC[C@]4(C)[C@H]3CC[C@@]12C` [KULINONE], the EC50 in test [1] is 4.6 µg/mL (≈ 10.4 µM). The GI50 in test [2] was 3.6 µg/mL (≈ 8.17 µM); in test [3] it was 3.6 µg/mL (≈ 8.17 µM); in test [4], 3.6 µg/mL (≈ 8.17 µM); in test [5], 3.6 µg/mL (≈ 8.17 µM); in test [6], 3.61 µg/mL (≈ 8.19 µM); in test [7], 3.6 µg/mL (≈ 8.17 µM).

`C[C@H](C/C=C/C(C)(C)O)[C@@H]1[C@@H](O)C[C@]2(C)C3=CC[C@H]4C(C)(C)C(=O)CC[C@]4(C)[C@H]3CC[C@@]12C` [MELIASTATIN 1]: the EC50 in test [1] worked out at 2.5 µg/mL (≈ 5.47 µM). Further, the GI50 in test [2], in test [3], in test [4], in test [5], in test [6] and in test [7] was 1.9 µg/mL (≈ 4.16 µM) each time.

Consider `COC(=O)[C@H](C/C=C/C(C)(C)O)[C@@H]1[C@@H](O)C[C@]2(C)C3=CC[C@H]4C(C)(C)C(=O)CC[C@]4(C)[C@H]3CC[C@@]12C` [MELIASTATIN 2], for which the EC50 in test [1] came to 5.6 µg/mL (≈ 11.2 µM). Also, the GI50 in test [2], in test [3], in test [4], in test [5], in test [6] and in test [7] was 6.3 µg/mL (≈ 12.6 µM) each time.

Regarding `COC(=O)[C@H](C/C=C/C(C)(C)OO)[C@@H]1[C@@H](O)C[C@]2(C)C3=CC[C@H]4C(C)(C)C(=O)CC[C@]4(C)[C@H]3CC[C@@]12C` [MELIASTATIN 3], the EC50 in test [1] is 3.1 µg/mL (≈ 6 µM).

Take `C=C(C)[C@@H](O)CC[C@@H](C(=O)OC)[C@@H]1[C@@H](O)C[C@]2(C)C3=CC[C@H]4C(C)(C)C(=O)CC[C@]4(C)[C@H]3CC[C@@]12C` [MELIASTATIN 4]: the EC50 in test [1] is 2 µg/mL (≈ 3.99 µM).

As for `C=C(C)C(O)CC[C@@H](C)[C@@H]1[C@@H](O)C[C@]2(C)C3=CC[C@H]4C(C)(C)C(=O)CC[C@]4(C)[C@H]3CC[C@@]12C` (stereo not given in full) [MELIASTATIN 5], the EC50 in test [1] amounted to 1.7 µg/mL (≈ 3.72 µM).

`COC(=O)[C@H](CCC=C(C)C)[C@@H]1[C@@H](O)C[C@]2(C)C3=CC[C@H]4C(C)(C)C(=O)CC[C@]4(C)[C@H]3CC[C@@]12C` [METHYL KULONATE]: the EC50 in test [1] was 5.1 µg/mL (≈ 10.5 µM). The GI50 in test [2], in test [3], in test [4], in test [5], in test [6] and in test [7] was 3.7 µg/mL (≈ 7.63 µM) in each case.
